Reference: patent US11319286B2, “Heterocyclic compound and application thereof” (Takeda Pharmaceutical Company Limited, priority 2017, dated 2022)

Biological target: T1, human orexin type 2 receptor (hOX2R) (Homo sapiens, UniProt O43614)
T1 construct: expressed in transfected cells
T1 sequence (O43614 1-444): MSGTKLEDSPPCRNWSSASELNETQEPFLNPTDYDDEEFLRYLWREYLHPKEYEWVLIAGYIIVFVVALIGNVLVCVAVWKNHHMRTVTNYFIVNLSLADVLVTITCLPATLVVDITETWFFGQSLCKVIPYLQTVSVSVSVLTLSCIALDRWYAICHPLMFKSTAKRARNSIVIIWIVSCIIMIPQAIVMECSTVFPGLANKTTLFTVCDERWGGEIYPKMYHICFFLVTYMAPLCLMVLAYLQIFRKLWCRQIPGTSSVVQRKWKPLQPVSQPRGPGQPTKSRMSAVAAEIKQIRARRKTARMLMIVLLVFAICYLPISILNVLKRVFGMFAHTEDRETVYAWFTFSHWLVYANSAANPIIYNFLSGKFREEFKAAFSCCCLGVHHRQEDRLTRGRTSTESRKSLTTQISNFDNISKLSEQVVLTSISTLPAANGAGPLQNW
Test: Measurement of orexin type 2 receptor agonist activity (calcium fluorescence, Fluo-4 AM, FDSS)
Assay type: cell-based
Details: CHO cells forcibly expressing human OX2 receptor; 100% = orexin A (human) 10 nM, 0% = DMSO
Excerpt: To obtain a cell clone stably expressing human orexin type 2 receptor, human orexin type 2 receptor cDNA was inserted into pcDNA3.1(+) plasmid vector (Invitrogen), and a plasmid DNA for expression of human orexin type 2 receptor (pcDNA3.1(+)/hOX2R) was cloned. The plasmid DNA was introduced into CHO-dhfr cell by an electroporation method, and human orexin type 2 receptor expressing clone cells were obtained by limiting dilution method by using G418 drug resistance as a selection marker.
CHO cells forcibly expressing human OX2 receptor were seeded in each well of 384 well black transparent bottom plate (BD Falcon) at 7,500 cells/well, and cultured for one day in a 5% CO2 incubator at 37° C. After removal of the medium in the cell plate, assay buffer A containing a calcium indicator (HBSS (Thermo Fisher Scientific), 20 mM HEPES (Thermo Fisher Scientific), 0.1% BSA (Wako Pure Chemical Industries, Ltd. or Sigma-Aldrich), 2.5 μg/mL Fluo-4 AM (DOJINDO Chemical), 0.08% Pluronic F127 (DOJINDO Chemical), 1.25 mM probenecid (DOJINDO Chemical)) was added at 30 μL/well. The plate was stood for 30 min in a 5% CO2 incubator at 37° C., and further stood at room temperature for 30 min. A test compound prepared by diluting with assay buffer B (HBSS, 20 mM HEPES, 0.1% BSA) was added at 10 μL/well, and the fluorescence value was measured by FDSSμCELL (Hamamatsu Photonics K.K.) every one sec for 1 min, and thereafter every two sec for 1 min 40 sec. The activity (%) of the test compound was calculated assuming that variation in the fluorescence value when DMSO was added instead of the test compound was 0%, and variation in the fluorescence value when orexin A (human) (PEPTIDE INSTITUTE, INC.) was added at the final concentration of 10 nM was 100%. Unless otherwise specified, the maximum agonist activity of each compound was 90% or more, when the maximum agonist activity of orexin A was considered as 100%.

EC50 [nM]	Structure (SMILES)
270	CN(C)C(=O)N1CC[C@H](NS(C)(=O)=O)[C@@H]1CO[C@H]1CC[C@@H](c2ccccc2C(F)(F)F)CC1 (relative stereo) [Example 9, cis-3-((methanesulfonyl)amino)-N,N-dimethyl-2-(((cis-4-(2-(trifluoromethyl)phenyl)cyclohexyl)oxy)methyl)pyrrolidine-1-carboxamide]
13	CN(C)C(=O)N1CC[C@H](NS(C)(=O)=O)[C@@H]1CO[C@H]1CC[C@@H](c2ccccc2)CC1 (relative stereo) [Example 8, cis-N,N-dimethyl-3-((methylsulfonyl)amino)-2-(((cis-4-phenylcyclohexyl)oxy)methyl)pyrrolidine-1-carboxamide]
82	CN(C)C(=O)N1CC[C@H](NS(C)(=O)=O)[C@@H]1COC1CCN(c2ncc(F)cn2)CC1 (relative stereo) [Example 11, cis-2-(((1-(5-fluoropyrimidin-2-yl)piperidin-4-yl)oxy)methyl)-3-((methanesulfonyl)amino)-N,N-dimethylpyrrolidine-1-carboxamide]
17	CS(=O)(=O)N[C@H]1CCN(C(=O)N2CCC2)[C@H]1CO[C@H]1CC[C@@H](c2ccccc2)CC1 (relative stereo) [Example 6, N-(cis-1-(azetidin-1-ylcarbonyl)-2-(((cis-4-phenylcyclohexyl)oxy)methyl)pyrrolidin-3-yl)methanesulfonamide]
410	CC(C)(O)C(=O)N1CC[C@H](NS(C)(=O)=O)[C@@H]1CO[C@H]1CC[C@@H](c2ccccc2)CC1 (relative stereo) [Example 10, N-(cis-1-(2-hydroxy-2-methylpropanoyl)-2-(((cis-4-phenylcyclohexyl)oxy)methyl)pyrrolidin-3-yl)methanesulfonamide]
3600	CS(=O)(=O)N[C@H]1CCN[C@H]1CO[C@H]1CC[C@@H](c2ccccc2)CC1 (relative stereo) [Example 2, N-(cis-2-(((cis-4-phenylcyclohexyl)oxy)methyl)pyrrolidin-3-yl)methanesulfonamide]
240	CCOC(=O)N1CC[C@H](NS(C)(=O)=O)[C@@H]1CO[C@H]1CC[C@@H](c2ccccc2)CC1 (relative stereo) [Example 3, ethyl cis-3-((methylsulfonyl)amino)-2-(((cis-4-phenylcyclohexyl)oxy)methyl) pyrrolidine-1-carboxylate]
760	CS(=O)(=O)N[C@H]1CCN(C(=O)CC(F)(F)F)[C@H]1CO[C@H]1CC[C@@H](c2ccccc2)CC1 (relative stereo) [Example 5, N-(cis-2-(((cis-4-phenylcyclohexyl)oxy)methyl)-1-(3,3,3-trifluoropropanoyl)pyrrolidin-3-yl)methanesulfonamide]
130	COC(=O)N1CC[C@H](NS(C)(=O)=O)[C@@H]1CO[C@H]1CC[C@@H](c2ccccc2)CC1 (relative stereo) [Example 1, methyl cis-3-((methylsulfonyl)amino)-2-(((cis-4-phenylcyclohexyl)oxy)methyl)pyrrolidine-1-carboxylate]
47	CS(=O)(=O)N[C@H]1CCN(C(=O)C2CC2)[C@H]1CO[C@H]1CC[C@@H](c2ccccc2)CC1 (relative stereo) [Example 4, N-(cis-1-(cyclopropylcarbonyl)-2-(((cis-4-phenylcyclohexyl)oxy)methyl)pyrrolidin-3-yl)methanesulfonamide]
40	CS(=O)(=O)N[C@H]1CCN(C(=O)C2CCC2)[C@H]1CO[C@H]1CC[C@@H](c2ccccc2)CC1 (relative stereo) [Example 7, N-(cis-1-(cyclobutylcarbonyl)-2-(((cis-4-phenylcyclohexyl)oxy)methyl)pyrrolidin-3-yl)methanesulfonamide]
